Results as given in patent US6462055B2, “Alpha-methylbenzyl-containing thiourea inhibitors of herpes viruses containing a phenylenediamine group” (Wyeth, priority 1998, dated 2002).
In brackets after ≈: the same amount, converted by molar mass.

Experiments:
[1] = tested on: HCMV recombinant mutant virus (RV145); assay: microbe, parasite or virus in culture; format: cell-based, human cytomegalovirus; details: for IC50: Human betaherpesvirus 5, read-out: IC50 ug/ml HCMV, HCMV
In short: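 Read-out is beta-glucuronidase activity in cell lysates 96 h after infection, measured colorimetrically or fluorometrically. Reporter virus RV145 expresses the enzyme under a viral promoter in human foreskin fibroblasts treated with inhibitor.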

HSV-1 = assay: HSV Antiviral (ELISA) Assay in Vero cells; format: cell-based, herpes simplex virus type 1; details: HSV-1, Vero cells; for IC50: Human alphaherpesvirus 1, read-out: IC50 (ug/ml) HSV
In short: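 Viral replication was quantified by cell-fixed ELISA for HSV glycoprotein D, using a β-galactosidase reporter and fluorogenic umbelliferyl substrate, about 24 h after HSV-1 infection (MOI 0.006) of Vero cells. Compounds, at several concentrations, were added 30 min pre-infection. IC50 was derived from fluorescence relative to the compound-free signal.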

VZV strain Ellen = assay: VZV Antiviral (ELISA) Assay in human foreskin fibroblast cells; format: cell-based, varicella-zoster virus; details: for IC50: Human alphaherpesvirus 3, Fibroblast, read-out: IC50 (ug/ml) VZV
In short: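 Cell-based ELISA: infected/uninfected HFF mix (VZV Ellen, MOI <0.1) exposed to compound in DMEM/2% FBS for 3 days at 37° C. Anti-gpII monoclonal plus β-galactosidase-linked secondary, detected as 4-methylumbelliferone fluorescence; IC50 derived by comparing fluorescence with versus without compound.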

SMILES | IC50 ug/ml HCMV [1] [µg/mL] | IC50 (ug/ml) HSV (HSV-1) [µg/mL] | IC50 (ug/ml) VZV (VZV strain Ellen) [µg/mL] | IC50 [1] [µg/mL] | IC50 (HSV-1) [µg/mL] | IC50 (VZV strain Ellen) [µg/mL]
CC(NC(=S)Nc1ccc(NC(=O)c2ccccc2F)cc1)c1cccc(Cl)c1 (stereo not drawn) [Example 779] | 1.2 (≈ 2.8 µM) | >10 | >7.5 | – | – | –
CC(NC(=S)Nc1ccc(NC(=O)c2ccccc2F)cc1)c1cccc(Br)c1 (stereo not drawn) [Example 780] | 1 (≈ 2.12 µM) | >10 | 1.2 (≈ 2.54 µM) | – | – | –
CC(NC(=S)Nc1ccc(NC(=O)c2ccccc2F)cc1)c1ccc(Cl)cc1 (stereo not drawn) [Example 781] | 1.8 (≈ 4.21 µM) | >10 | 0.6 (≈ 1.4 µM) | – | – | –
Cc1ccc(C(C)NC(=S)Nc2ccc(NC(=O)c3ccccc3F)cc2)cc1 (stereo not drawn) [Example 782] | 0.9 (≈ 2.21 µM) | >10 | 3 (≈ 7.36 µM) | – | – | –
CC(NC(=S)Nc1ccc(NC(=O)c2ccccc2F)cc1)c1ccccc1Br (stereo not drawn) [Example 783] | 1.1 (≈ 2.33 µM) | >10 | 0.3 (≈ 0.635 µM) | – | – | –
CC(NC(=S)Nc1ccc(NC(=O)c2ccccc2F)cc1)c1ccccc1Cl (stereo not drawn) [Example 784] | 1.1 (≈ 2.57 µM) | >10 | 0.7 (≈ 1.64 µM) | – | – | –
CC(NC(=S)Nc1ccc(NC(=O)c2ccccc2F)cc1)c1ccccc1C(F)(F)F (stereo not drawn) [Example 785] | – | – | – | > 2.2 | > 10 | > 7.5
COc1ccccc1C(C)NC(=S)Nc1ccc(NC(=O)c2ccccc2F)cc1 (stereo not drawn) [Example 788] | 1.8 (≈ 4.25 µM) | >10 | >7.5 | – | – | –
COc1cccc(C(C)NC(=S)Nc2ccc(NC(=O)c3ccccc3F)cc2)c1 (stereo not drawn) [Example 789] | >2.2 | >10 | 1.5 (≈ 3.54 µM) | – | – | –
CC(C)C(NC(=S)Nc1ccc(NC(=O)c2ccccc2F)cc1)c1ccc(F)cc1 (stereo not drawn) [Example 790] | 1.5 (≈ 3.41 µM) | >10 | 2.5 (≈ 5.69 µM) | – | – | –
CC(NC(=S)Nc1ccc(NC(=O)c2ccccc2F)cc1)c1ccc(C#N)cc1 (stereo not drawn) [Example 792] | – | – | – | 5 (≈ 11.9 µM) | > 10 | > 7.5
CC(NC(=S)Nc1ccc(NC(=O)c2ccccc2F)cc1)c1ccc(N(C)C)cc1 (stereo not drawn) [Example 793] | 3.2 (≈ 7.33 µM) | 9 (≈ 20.6 µM) | 3.1 (≈ 7.1 µM) | – | – | –
CC(NC(=S)Nc1ccc(NC(=O)c2ccccc2F)cc1)c1cccc(N(C)C)c1 (stereo not drawn) [Example 794] | 6.2 (≈ 14.2 µM) | 7 (≈ 16 µM) | 0.4 (≈ 0.916 µM) | – | – | –
CC(NC(=S)Nc1ccc(NC(=O)c2ccccc2Br)cc1)c1ccc(F)cc1 (stereo not drawn) [Example 795] | 4.1 (≈ 8.68 µM) | 8.6 (≈ 18.2 µM) | >7.5 | – | – | –
O=C(Nc1ccc(NC(=S)NC(CO)c2ccccc2)cc1)c1ccccc1F (stereo not drawn) [Example 797] | – | – | – | > 10 | > 10 | 1.7 (≈ 4.15 µM)
CC(NC(=S)Nc1ccc(NC(=O)c2ccccc2F)cc1)c1ccc2ccccc2c1 (stereo not drawn) [Example 799] | 1.7 (≈ 3.83 µM) | >10 | >7.5 | – | – | –
CC(NC(=S)Nc1ccc(NC(=O)c2cccc(F)c2)cc1)c1ccc(F)cc1 (stereo not drawn) [Example 800] | – | – | – | > 10 | > 10 | > 7.5
CC(NC(=S)Nc1ccc(NC(=O)c2ccc(F)cc2)cc1)c1ccc(F)cc1 (stereo not drawn) [Example 801] | – | – | – | > 10 | > 10 | > 7.5
CCOc1ccc(NC(=S)Nc2ccc(NC(=O)c3ccccc3F)cc2)cc1Cl [Example 806] | >10 | >10 | >7.5 | – | – | –
